Reference: patent publication US20260234140A1, “PYRIDOPYRIMIDINE DERIVATIVE AND USE THEREOF” (SUNSHINE LAKE PHARMA CO., LTD., priority 2023, published 2026)

Test system: PD1/PD-L1 pathway
Test: PD1/PD-L1 Blockade Bioassay, inhibition of the PD1/PD-L1 pathway at the cellular level (luciferase reporter, PD-1 Jukat T cells co-cultured with PD-L1 aAPC/CHO-K1 cells)
Assay type: cell-based
Conditions: T-cell; for EC50: PD-1 Jukat T cells + PD-L1 aAPC/CHO-K1 cells, 6 h co-culture, ONE-Glo luciferase readout; for Emax: maximum % Activity relative to atezolizumab (set to 100%)
Method: Experiment 1: Detecting the Inhibitory Activity of Compounds on the PD1/PD-L1 Pathway at the Cellular Level Using the PD1/PD-L1 Blockade Bioassay Method
PD-1 Jukat T cells were revived and cultured with 1640 medium containing 100 μg/mL Hygromycin B, […] Puromycin, 10% FBS and 1% dual antibody; PD-L1 aAPC/CHO-K1 cells were revived and cultured with F12K medium containing 100 μg/mL Hygromycin B, 200 μg/mL G418, 10% FBS and 1% dual antibody.
The revived cells need to be passaged 2-3 times. When the cells enter the exponential growth phase with good growth status, the PD-L1 aAPC/CHO-K1 was digested with trypsin, and the cells were resuspended in F12K containing 5% FBS and adjusted to a density of 5×10^5 cells/mL. 20 μl/well were plated in a 384-well plate (10,000 cells/well) and incubated in an incubator overnight for 16-20 h.
a Preparation of compound stock solution: Dissolve the compound to be tested in DMSO to prepare a 20 mM stock solution.
b Compound gradient dilution: dilute the compound in 1640 medium containing 5% FBS without antibiotics or phenol red, and make 3-fold gradient dilutions to prepare 10 concentration gradients (2×).
c Adding drugs: Take out the cell culture plate, discard the supernatant, add 20 μl/well of the prepared compound, and incubate in the incubator for 1.5 h.
PD-1 Jukat T cells were collected, washed once with PBS, and resuspended in 1640 medium containing 5% FBS without antibiotics or phenol red. The density was adjusted to 1×10^6 cells/mL. 20 μl PD-1 Jukat T cells (20,000 cells/well) were added to each well and incubated in the incubator for 6 h.
ONE-Glo™ Luciferase Assay reagent was thawed to room temperature in advance and then added to a 384-well plate at 40 µl/well. Incubate in the dark for 15 minutes and read the […] signal on a plate reader.
[formula] • Among them, % Activity: % Activity • RLU: Resulting Luminescence unit • RLUvehicle: Average RLU value of negative control wells on each plate • RLUpositive: Average RLU value of positive control wells on each plate • Vehicle control: DMSO (0.1%) corresponding to the test value was used as negative control (its % Activity was 0%); • Positive control: The highest detection value at the atezolizumab administration concentration was used as the positive control (its % Activity was 100%). • (2) EC50 value calculation method: The EC50 value was obtained by the nonlinear fitting formula of Graph Pad Prism 8.0 software. The calculation formula is as follows:
Y=Bottom+(Top−Bottom)/(1+10^((Log EC50−X)×HillSlope)) • X: log of activator concentration (logarithm of compound concentration); Y: % Activity • (3) Emax definition: The maximum % Activity value corresponding to the maximum activation value of the compound relative to atezolizumab (the activation value is set to 100%).

SMILES | EC50 | Emax
COc1nc(-c2cccc(-c3cccc(Nc4nc(C(F)F)nc5cc(CN6CC(OC)C6)cnc45)c3C)c2Cl)cnc1CN(C)[C@H]1CC[C@H](C(=O)O)CC1 [Example 18, (1r,4r)-4-(((5-(2-chloro-3′-((2-(difluoromethyl)-7-((3-methoxyazetidin-1-yl)methyl)pyrido[3,2-d]pyrimidin-4-yl)amino)-2′-methyl-[1,1′-biphenyl]-3-yl)-3-methoxypyrazin-2-yl)methyl)(methyl)amino)cyclohexane-1-carboxylic acid] | 71.1 nM | 68%
COc1nc(-c2cccc(-c3cccc(Nc4nc(C(F)F)nc5cc(CN6CCC[C@H]6C)cnc45)c3C)c2Cl)cnc1CN(C)[C@H]1CC[C@H](C(=O)O)CC1 [Example 41] | 90.6 nM | 79%
COc1nc(-c2cccc(-c3cccc(Nc4nc(C(F)F)nc5cc(CN6CC[C@@](C)(O)C6)cnc45)c3C)c2Cl)cnc1CN(C)[C@H]1CC[C@H](C(=O)O)CC1 [Example 29, (1r,4r)-4-(((5-(2-chloro-3′-((2-(difluoromethyl)-7-(((R)-3-hydroxy-3-methylpyrrolidin-1-yl)methyl)pyrido[3,2-d]pyrimidin-4-yl)amino)-2′-methyl-[1,1′-biphenyl]-3-yl)-3-methoxypyrazin-2-yl)methyl)(methyl)amino)cyclohexane-1-carboxylic acid] | 42.9 nM | 89%
[2H]C([2H])([2H])N(Cc1ccc(-c2cccc(-c3cccc(Nc4nc(C(F)F)nc5cc(CN6CC[C@@H](O)C6)cnc45)c3C)c2Cl)nc1OC)[C@H]1CC[C@H](C(=O)O)CC1 [Example 13, (1r,4r)-4-(((6-(2-chloro-3′-((2-(difluoromethyl)-7-(((R)-3-hydroxypyrrolidin-1-yl)methyl)pyrido[3,2-d]pyrimidin-4-yl)amino)-2′-methyl-[1,1′-biphenyl]-3-yl)-2-methoxypyridin-3-yl)methyl)(methyl-d3)amino)cyclohexane-1-carboxylic acid] | 38.2 nM | 104%
COc1nc(-c2cccc(-c3cccc(Nc4nc(C(F)F)nc5cc(CN6CC[C@@H](O)C6)cnc45)c3C)c2Cl)ccc1CNC12CCC(C(=O)O)(CC1)C2 [Example 9, (R)-4-(((6-(2-chloro-3′-((2-(difluoromethyl)-7-((3-hydroxypyrrolidin-1-yl)methyl)pyrido[3,2-d]pyrimidin-4-yl)amino)-2′-methyl-[1,1′-biphenyl]-3-yl)-2-methoxypyridin-3-yl)methyl)amino)bicyclo[2.2.1]heptane-1-carboxylic acid] | 90.7 nM | 117%
COc1nc(-c2cccc(-c3cccc(Nc4nc(C(F)F)nc5cc(CN6CC[C@@H](O)C6)cnc45)c3C)c2Cl)cnc1CN(C)C[C@H]1CC[C@H](C(=O)O)CC1 [Example 14, (1r,4r)-4-((((5-(2-chloro-3′-((2-(difluoromethyl)-7-(((R)-3-hydroxypyrrolidin-1-yl)methyl)pyrido[3,2-d]pyrimidin-4-yl)amino)-2′-methyl-[1,1′-biphenyl]-3-yl)-3-methoxypyrazin-2-yl)methyl)(methyl)amino)methyl)cyclohexane-1-carboxylic acid] | 31.3 nM | 103%
COc1nc(-c2cccc(-c3cccc(Nc4nc(C(F)F)nc5cc(CN6CC[C@@H](O)C6)cnc45)c3C)c2Cl)ccc1CN[C@H]1CC[C@H](C(=O)O)CC1 [Example 2, (1r,4r)-4-(((6-(2-chloro-3′-((2-(difluoromethyl)-7-(((R)-3-hydroxypyrrolidin-1-yl)methyl)pyrido[3,2-d]pyrimidin-4-yl)amino)-2′-methyl-[1,1′-biphenyl]-3-yl)-2-methoxypyridin-3-yl)methyl)amino)cyclohexane-1-carboxylic acid] | 98.3 nM | 118%
COc1nc(-c2cccc(-c3cccc(Nc4nc(C(F)F)nc5cc(CN6CCCC6)cnc45)c3C)c2Cl)cnc1CN(C)[C@H]1CC[C@H](C(=O)O)CC1 [Example 20, (1r,4r)-4-(((5-(2-chloro-3′-((2-(difluoromethyl)-7-(pyrrolidin-1-ylmethyl)pyrido[3,2-d]pyrimidin-4-yl)amino)-2′-methyl-[1,1′-biphenyl]-3-yl)-3-methoxypyrazin-2-yl)methyl)(methyl)amino)cyclohexane-1-carboxylic acid] | 63.5 nM | 108%
COc1nc(-c2cccc(-c3cccc(Nc4nc(C(F)F)nc5cc(CN6CCC(O)CC6)cnc45)c3C)c2Cl)cnc1CN(C)[C@H]1CC[C@H](C(=O)O)CC1 [Example 21, (1r,4r)-4-(((5-(2-chloro-3′-((2-(difluoromethyl)-7-((4-hydroxypiperidin-1-yl)methyl)pyrido[3,2-d]pyrimidin-4-yl)amino)-2′-methyl-[1,1′-biphenyl]-3-yl)-3-methoxypyrazin-2-yl)methyl)(methyl)amino)cyclohexane-1-carboxylic acid] | 105 nM | 65%
COc1nc(-c2cccc(-c3cccc(Nc4nc(C(F)F)nc5cc(CN6CC[C@@H](O)C6)cnc45)c3C)c2Cl)cnc1CN1CCC(C(=O)O)CC1 [Example 15, (R)-1-((5-(2-chloro-3′-((2-(difluoromethyl)-7-((3-hydroxypyrrolidin-1-yl)methyl)pyrido[3,2-d]pyrimidin-4-yl)amino)-2′-methyl-[1,1′-biphenyl]-3-yl)-3-methoxypyrazin-2-yl)methyl)piperidine-4-carboxylic acid] | 41.8 nM | 97%
COc1nc(-c2cccc(-c3cccc(Nc4nc(C(F)F)nc5cc(CN6CC[C@@H](O)C6)cnc45)c3C)c2Cl)ccc1CN(C)CC12CCC(C(=O)O)(CC1)C2 [Example 10, (R)-4-((((6-(2-chloro-3′-((2-(difluoromethyl)-7-((3-hydroxypyrrolidin-1-yl)methyl)pyrido[3,2-d]pyrimidin-4-yl)amino)-2′-methyl-[1,1′-biphenyl]-3-yl)-2-methoxypyridin-3-yl)methyl)(methyl)amino)methyl)bicyclo[2.2.1]heptane-1-carboxylic acid] | 70.7 nM | 79.3%
COc1nc(-c2cccc(-c3cccc(Nc4nc(C(F)F)nc5cc(CN6CC[C@@H](O)C6)cnc45)c3Cl)c2Cl)ccc1CN(C)[C@H]1CC[C@H](C(=O)O)CC1 [Example 16, (1r,4r)-4-(((6-(2,2′-dichloro-3′-((2-(difluoromethyl)-7-(((R)-3-hydroxypyrrolidin-1-yl)methyl)pyrido[3,2-d]pyrimidin-4-yl)amino)-[1,1′-biphenyl]-3-yl)-2-methoxypyridin-3-yl)methyl)(methyl)amino)cyclohexane-1-carboxylic acid] | 28.1 nM | 107%
COc1nc(-c2cccc(-c3cccc(Nc4nc(C(F)F)nc5cc(CN6CC[C@@H](CO)C6)cnc45)c3C)c2Cl)cnc1CN(C)[C@H]1CC[C@H](C(=O)O)CC1 [Example 23, (1r,4r)-4-(((5-(2-chloro-3′-((2-(difluoromethyl)-7-(((R)-3-(hydroxymethyl)pyrrolidin-1-yl)methyl)pyrido[3,2-d]pyrimidin-4-yl)amino)-2′-methyl-[1,1′-biphenyl]-3-yl)-3-methoxypyrazin-2-yl)methyl)(methyl)amino)cyclohexane-1-carboxylic acid] | 44.4 nM | 74%
